Data published in US20100216747A1, “PREVENTIVE AGENT OR THERAPEUTIC AGENT FOR DISEASE CAUSED BY ABNORMAL BONE METABOLISM” (TEIJIN PHARMA LIMITED, priority 2007, published 2010).
Where two headings read alike, the source gives them in different places.

Assays:
[1] = tested on: osteoclast-like cells formed from mouse bone marrow-derived cells; assay: Formation of osteoclast-like cells (TRAP-positive multinuclear cells) from mouse bone marrow-derived cells cultured with 1α,25(OH)2D3; assay type: cell-based; conditions: alone or simultaneously, 7 days; for number of osteoclast-like cells formed, taking Comparative Example 3-1 as 100%: Example 3 experiment (FIG. 3): Compound A 10^−7 M, 4 to 5 wells; for number of osteoclast-like cells formed, taking Comparative Example 1-1 as 100%: Example 1 experiment (FIG. 1): Compound A 10^−7 M; for number of osteoclast-like cells formed, taking Comparative Example 1-1 as 100% / number of osteoclast-like cells formed, taking Comparative Example 2-1 as 100%: 3 wells; for number of osteoclast-like cells formed, taking Comparative Example 2-1 as 100%: Example 2 experiment (FIG. 2): Compound A 10^−6 M
Description: Multinuclear osteoclast-like cells were formed from mouse bone marrow-derived cells by collecting bone marrows of the femur and the tibia from a mouse, removing erythrocytes according to the ordinary method, plating the residual components in a 96-well plate at the density of 4×10^5cells/well, culturing the cells overnight, then adding a medium containing 1α,25-dihydroxy vitamin D3 (referred to as 1═,25(OH)2D3 hereinbelow) in order to be at 10^−9M, and culturing the cells in the presence of 1α,25(OH)2D3 for 7 days. An αMEM medium containing 10% fetal calf serum (referred to as 10% FCS-αMEM hereinbelow) was used as a medium. When 1α,25(OH)2D3 was added to the mouse bone marrow-derived cells, each of a solvent alone (Comparative Example 1-1), N-hydroxy-4-{5-[4-(5-isopropyl-2-methyl-1,3-thiazol-4-yl)phenoxy]pentoxy}-benzamidine (described as Compound A in Figure) alone (Comparative Example 1-2), risedronic acid alone (Comparative Example 1-3), and N-hydroxy-4-{5-[4-(5-isopropyl-2-methyl-1,3-thiazol-4-yl)phenoxy]pentoxy}-benzamidine (described as Compound A in Figure) and risedronic acid simultaneously (Example 1) were added to the mouse bone marrow-derived cell culture system, and the effects on formation of osteoclast-like cells were evaluated. The following groups were set for the experiment.
For addition of N-hydroxy-4-{5-[4-(5-isopropyl-2-methyl-1,3-thiazol-4-yl)phenoxy]pentoxy}-benzamidine (Compound A), in both the Comparative Examples and Example, N-hydroxy-4-{5-[4-(5-isopropyl-2-methyl-1,3-thiazol-4-yl)phenoxy]pentoxy}-benzamidine (Compound A) was dissolved in dimethylsulfoxide (DMSO) at a concentration of 10^−4 M, and the resultant solution was added to the medium to make 10^−7 M at a 1000-fold dilution. For addition of risedronic acid, in both the Comparative Examples and Example, sodium risedronate hydrate was dissolved in phosphate buffered saline (PBS) at a concentration of […], and the resultant solution was added to the medium to make 3×10^−7 M at a 1000-fold dilution. On the third day after addition of the test compound(s) of the respective conditions, the medium was replaced with fresh 10% FCS-αMEM containing the test compound(s) of the respective conditions in both the Comparative Examples and Example.
In both the Comparative Examples and Example, on the 7th day after the start of culture, the medium was removed, the cells were fixed with phosphate buffered formalin and stained by tartrate-resistant acid phosphatase (abbreviated as TRAP hereinbelow), an osteoclast marker, using Sigma Acid Phosphatase, Leukocyte (TRAP) kit (Sigma, No. 386A), and the number of TRAP-positive multinuclear cells having 6 or more cell nuclei was counted as osteoclast-like cells under an optical microscope.
The experiment was conducted in a similar manner to that described in Example 1, except that the concentration of N-hydroxy-4-{5-[4-(5-isopropyl-2-methyl-1,3-thiazol-4-yl)phenoxy]pentoxy}-benzamidine in the medium was set at 10^−6M, and the following groups were set.
The experiment was conducted in a similar manner to that described in Example 1, except that clodronic acid at a concentration of 10^−5 M was allowed to act on the cells in place of risedronic acid at a concentration of 3×10^−7 M in the Comparative Examples and Example, and the following groups were set.

[2] = tested on: osteoclast-like cells formed from mouse bone marrow-derived cells; assay: Bone resorption activity of osteoclast-like cells on ivory section (type I collagen cross-linked C-telopeptide in medium, ELISA); assay type: cell-based; conditions: Example 4 experiment: Compound A 10^−7 M, risedronic acid 10^−8 M, alone or simultaneously, 9 days on ivory section, vs Comparative Example 4-1, 3 to 4 wells
Description: Multinuclear osteoclast-like cells were formed from mouse bone marrow-derived cells by collecting bone marrows of the femur and the tibia from a mouse, removing erythrocytes according to the ordinary method, plating the residual components in a 96-well plate containing an ivory section at the density of 4×10^5 cells/well, culturing the cells overnight, then adding a medium containing 1α,25-dihydroxy vitamin D3 (referred to as 1α,25(OH)2D3 hereinbelow) in order to be at 10^−9 M, and culturing the cells in the presence of 1α,25(OH)2D3 for 9 days. An αMEM medium containing 10% fetal calf serum (referred to as 10% FCS-αMEM hereinbelow) was used as a medium. When 1α,25(OH)2D3 was added to the mouse bone marrow-derived cells, each of a solvent alone (Comparative Example 4-1), N-hydroxy-4-{5-[4-(5-isopropyl-2-methyl-1,3-thiazol-4-yl)phenoxy]pentoxy}-benzamidine (described as Compound A in Table 4) alone (Comparative Example 4-2), risedronic acid alone (Comparative Example 4-3), and N-hydroxy-4-{5-[4-(5-isopropyl-2-methyl-1,3-thiazol-4-yl)phenoxy]pentoxy}-benzamidine (described as Compound A in Table 4) and risedronic acid (Example 4) were simultaneously added to the mouse bone marrow-derived cell culture system, and the effects on formation of osteoclast-like cells were evaluated. The following groups were set for the experiment.
For addition of N-hydroxy-4-{5-[4-(5-isopropyl-2-methyl-1,3-thiazol-4-yl)phenoxy]pentoxy}-benzamidine (Compound A), in both the Comparative Examples and Example, N-hydroxy-4-{5-[4-(5-isopropyl-2-methyl-1,3-thiazol-4-yl)phenoxy]pentoxy}-benzamidine (Compound A) was dissolved in dimethylsulfoxide (DMSO) at a concentration of 10^−4 M, and the resultant solution was added to the medium to make 10^−7 M at a 1000-fold dilution. […]
Both in Comparative Examples and Example, the culture medium was collected 9 days after the start of culture, and the quantity of type I collagen cross-linked C-telopeptide in the medium was measured. […]

[3] = Mus musculus, Osteoclast-like, 168 h, Example 3 experiment: Compound A 10^−7 M, clodronic acid 10^−5 M, vs Comparative Example 3-1, read-out: Osteoclast-like cell formation inhibition rate (%)
[4] = Mus musculus, Osteoclast-like, 168 h, Example 1 experiment: Compound A 10^−7 M, risedronic acid 3×10^−7 M, vs Comparative Example 1-1, read-out: Osteoclast-like cell formation inhibition rate (%)
[5] = Mus musculus, Osteoclast-like, 168 h, Example 2 experiment: Compound A 10^−6 M, risedronic acid 3×10^−7 M, vs Comparative Example 2-1, read-out: Osteoclast-like cell formation inhibition rate (%)
[6] = Mus musculus, Osteoclast-like, 216 h, read-out: Bone resorption inhibitory rate (%)

Row | Structure (SMILES) | number of osteoclast-like cells formed, taking Comparative Example 3-1 as 100% ([1]; clodronic acid 10^−5 M) [%] | inhibition at 10 µM [1, 3] [%] | number of osteoclast-like cells formed, taking Comparative Example 1-1 as 100% ([1]; risedronic acid 3×10^−7 M) [%] | number of osteoclast-like cells formed, taking Comparative Example 2-1 as 100% ([1]; risedronic acid 3×10^−7 M) [%] | inhibition at 0.1 µM [1, 4] [%] | inhibition at 1 µM [1, 5] [%] | inhibition at 0.1 µM [1, 3] [%] | inhibition at 0.1 µM [2, 6] [%] | inhibition at 0.3 µM [1, 4] [%] | inhibition at 0.3 µM [1, 5] [%] | Bone resorption inhibitory rate (%) ([2]; listed as Comparative Example 4-3) | inhibition at 0.01 µM [2, 6] [%]
1 | O=P(O)(O)C(Cl)(Cl)P(=O)(O)O [clodronic acid] | 93.9 | 6.1 | – | – | – | – | – | – | – | – | – | –
2 | Cc1nc(-c2ccc(OCCCCCOc3ccc(/C(N)=N/O)cc3)cc2)c(C(C)C)s1 [Compound A, N-hydroxy-4-{5-[4-(5-isopropyl-2-methyl-1,3-thiazol-4-yl)phenoxy]pentoxy}-benzamidine] | 95.2 | – | 81.3 | 50 | 18.7 | 50 | 4.8 | 13.9 | – | – | – | –
3 | O=P(O)(O)C(O)(Cc1cccnc1)P(=O)(O)O [risedronic acid] | – | – | 88.1 | 88.1 | – | – | – | – | 11.9 | 11.9 | 18.3 | 18.3
